Source: patent US5128343A, “Derivatives of pyrimidinyl-piperazinyl-alkyl azoles with anxiolytic and/or tranquilizing activity” (Laboratorios del Dr. Esteve, priority 1989, dated 1992)
Counter-ions that a name gives are not always drawn. Like-named read-outs stand apart in the source and are kept apart here.

Tested on: male Wistar rats
Assay: conditioned avoidance response test (anxiolytic and tranquilizing action)
Type: in vivo
Conditions: suppression of conditioned avoidance response, oral administration 45 minutes before study; for Activity %: dose not given
Description: In this test, male Wistar rats of 200 grams weight are used, trained to jump over a barrier in an avoidance and exit cage (shuttle box) (Letica, reference L1 910 and L1 2700) in the 30 seconds following their introduction into the cage.
The products with anxiolytic or tranquilizing activity suppress the conditioned avoidance response.
Training: first day: 11 tests, at intervals of 3 minutes. Electro-shock on the paws, at 30 seconds (5 mA, 0.1 s, 10 s).
Second and third days: 2 tests per day, solely with selected rats [sum of the points of the first day (excepting the first test)>14].
Day of test: groups formed of selected rats. Oral administration of the product or of the vehicle 45 minutes before starting the study.

[1] = Rattus norvegicus, po, 0.75 h, read-out: ED50

O=C1CC2(CCCC2)CC(=O)N1CCCCN1CCN(c2ncccn2)CC1 [Buspirone, reference compound]
ED50 [1]: 17.2 mg/kg
Activity %: 99%

c1cnc(N2CCN(CCCCn3cccn3)CC2)nc1 [Example 1, 1H-pyrazole-1-(4-(4-(2-pyrimidinyl)-1-piperazinyl)-butyl)]
ED50 [1]: 26.2 mg/kg
Activity %: 98%

Cc1cc(C)n(CCCCN2CCN(c3ncccn3)CC2)n1 [Example 2]
ED50 [1]: 80 mg/kg
Activity %: 50%

Cc1nn(CCCCN2CCN(c3ncccn3)CC2)c(C)c1[N+](=O)[O-] [Example 3]
ED50 [1]: 58.3 mg/kg
Activity %: 61%

Cc1cnn(CCCCN2CCN(c3ncccn3)CC2)c1 [Example 4]
ED50 [1]: < 20 mg/kg
Activity %: 98%

c1cnc(N2CCN(CCCCn3ncc4ccccc43)CC2)nc1 [Example 5]
ED50 [1]: 80 mg/kg
Activity %: 45%

Cc1nn(CCCCN2CCN(c3ncccn3)CC2)c(C)c1Br [Example 6]
ED50 [1]: 80 mg/kg
Activity %: 51%

O=[N+]([O-])c1cnn(CCCCN2CCN(c3ncccn3)CC2)c1 [Example 7, 1H-pyrazole-4-nitro-1-(4-(4-(2-pyrimidinyl)-1-piperazinyl)-butyl)]
ED50 [1]: 6.2 mg/kg
Activity %: 98%

Clc1cnn(CCCCN2CCN(c3ncccn3)CC2)c1 [Example 8, 1H-pyrazole-4-chloro-1-(4-(4-(2-pyrimidinyl)-1-piperazinyl)-butyl)]
ED50 (45 min): 17.9 mg/kg
Activity %: 95%

CCOC(=O)c1cnn(CCCCN2CCN(c3ncccn3)CC2)c1 [Example 9]
Activity %: 14%

Cc1cc(-c2ccccc2)n(CCCCN2CCN(c3ncccn3)CC2)n1 [Example 10]
Activity %: 24%

Brc1cnn(CCCCN2CCN(c3ncccn3)CC2)c1 [Example 11]
ED50 [1]: 28.9 mg/kg
Activity %: 95%

N#Cc1cnn(CCCCN2CCN(c3ncccn3)CC2)c1 [Example 12]
Activity %: 100%

Fc1cnn(CCCCN2CCN(c3ncccn3)CC2)c1 [Example 13]
Activity %: 85%

Nc1cnn(CCCCN2CCN(c3ncccn3)CC2)c1 [Example 15, 1H-pyrazole-4-amino-1-(4-(4-(2-pyrimidinyl)-1-piperazinyl)-butyl)]
ED50 [1]: 27.7 mg/kg
Activity %: 79%

CS(=O)(=O)Nc1cnn(CCCCN2CCN(c3ncccn3)CC2)c1 [Example 16, 1H-pyrazole-4-methylsulfonamido-1-(4-(4-(2-pyrimidinyl)-1-piperazinyl)-butyl)]
ED50 [1]: 40 mg/kg
Activity %: 64%

O=C(Nc1cnn(CCCCN2CCN(c3ncccn3)CC2)c1)c1ccccc1 [Example 17]
ED50 [1]: 65.9 mg/kg
Activity %: 62%

CC(=O)Nc1cnn(CCCCN2CCN(c3ncccn3)CC2)c1 [Example 18]
ED50 [1]: 28.8 mg/kg
Activity %: 89%

CCC(C)Nc1cnn(CCCCN2CCN(c3ncccn3)CC2)c1 (stereo not shown) [Example 19]
ED50 [1]: 29.7 mg/kg
Activity %: 80%

Brc1cnc(N2CCN(CCCCn3cc(Br)cn3)CC2)nc1 [Example 20]
ED50 [1]: 76.8 mg/kg
Activity %: 59%

Clc1cnn(CCCCN2CCN(c3ncc(Br)cn3)CC2)c1 [Example 21]
ED50 [1]: 51.7 mg/kg
Activity %: 48%

Cc1ccnn1CCCCN1CCN(c2ncccn2)CC1 [Example 22]
Activity %: 47%

Cc1c(Br)cnn1CCCCN1CCN(c2ncccn2)CC1 [Example 24, 1H-pyrazole-4-bromo-5-methyl-1-(4-(4-(2-pyrimidinyl)-1-piperazinyl)-butyl)]
ED50 [1]: 60.6 mg/kg
Activity %: 53%

Cc1nn(CCCCN2CCN(c3ncccn3)CC2)cc1Br [Example 25]
ED50 [1]: 58.3 mg/kg
Activity %: 59%

c1cnc(N2CCN(CCCCn3ncc4c3CCCC4)CC2)nc1 [Example 26]
ED50 [1]: 19.5 mg/kg
Activity %: 97%

c1cnc(N2CCN(CCCCn3cc4c(n3)CCCC4)CC2)nc1 [Example 27]
ED50 [1]: 18.9 mg/kg
Activity %: 98%

Cc1c(-c2ccccc2)cnn1CCCCN1CCN(c2ncccn2)CC1 [Example 28]
ED50 [1]: 32.2 mg/kg
Activity %: 75%

Cc1nn(CCCCN2CCN(c3ncccn3)CC2)cc1-c1ccccc1 [Example 29]
ED50 [1]: 31.9 mg/kg
Activity %: 78%

Fc1cn(CCCCN2CCN(c3ncccn3)CC2)nc1Cl [Example 30]
ED50 [1]: 53.9 mg/kg
Activity %: 85%

COc1ccc(-c2cnn(CCCCN3CCN(c4ncccn4)CC3)c2)cc1 [Example 32]
ED50 [1]: 22.5 mg/kg
Activity %: 60%

Clc1ccc(-c2cnn(CCCCN3CCN(c4ncccn4)CC3)c2)cc1 [Example 33]
ED50 [1]: 15.7 mg/kg
Activity %: 90%

c1cnc(N2CCN(CCCCn3cc(-n4cccc4)cn3)CC2)nc1 [Example 34]
ED50 [1]: 5 mg/kg
Activity %: 100%

c1ccc(-c2cnn(CCCCN3CCN(c4ncccn4)CC3)c2)cc1 [Example 35]
ED50 [1]: 27.4 mg/kg
Activity %: 100%

c1ccc(-c2cc(-c3ccccc3)n(CCCCN3CCN(c4ncccn4)CC3)n2)cc1 [Example 36]
ED50 [1]: 122 mg/kg
Activity %: 31%

O=S(=O)(Nc1cnn(CCCCN2CCN(c3ncccn3)CC2)c1)c1ccccc1 [Example 37]
ED50 [1]: 85 mg/kg
Activity %: 46%

Cc1ccc(S(=O)(=O)Nc2cnn(CCCCN3CCN(c4ncccn4)CC3)c2)cc1 [Example 38]
ED50 [1]: 102 mg/kg
Activity %: 37%

CCCCS(=O)(=O)Nc1cnn(CCCCN2CCN(c3ncccn3)CC2)c1 [Example 39]
ED50 [1]: 73 mg/kg
Activity %: 57%

CCCS(=O)(=O)Nc1cnn(CCCCN2CCN(c3ncccn3)CC2)c1 [Example 40]
ED50 [1]: 73 mg/kg
Activity %: 57%

CCS(=O)(=O)Nc1cnn(CCCCN2CCN(c3ncccn3)CC2)c1 [Example 41]
ED50 [1]: 29.3 mg/kg
Activity %: 77%

Cc1nn(CCCCN2CCN(c3ncccn3)CC2)c(C)c1S(=O)(=O)N(C)C [Example 42]
ED50 [1]: 82 mg/kg
Activity %: 45%

CN(C)S(=O)(=O)c1cnn(CCCCN2CCN(c3ncccn3)CC2)c1 [Example 43]
ED50 [1]: 72 mg/kg
Activity %: 63%

O=S(=O)(O)c1cnn(CCCCN2CCN(c3ncccn3)CC2)c1 [Example 44]
Activity %: 15%

c1cnc(N2CCN(CCCCn3ccnc3)CC2)nc1 [Example 45]
ED50 [1]: 93 mg/kg
Activity %: 35%

Clc1ncn(CCCCN2CCN(c3ncccn3)CC2)c1Cl [Example 46]
Activity %: 99%

Cc1cn(CCCCN2CCN(c3ncccn3)CC2)cn1 [Example 47]
ED50 [1]: 80 mg/kg
Activity %: 50%

Cc1cncn1CCCCN1CCN(c2ncccn2)CC1 [Example 48]
ED50 [1]: 75 mg/kg
Activity %: 52%

Clc1cnn(CCCCN2CCN(c3ncccn3)CC2)c1 [Example 49]
ED50 (45 min): 14.5 mg/kg
Activity %: 100%

Clc1cnn(CCCCN2CCN(c3ncccn3)CC2)c1 [Example 50, 1H-pyrazole-4-chloro-1-(4-(4-(2-pyrimidinyl)-1-piperazinyl)-butyldihydrochloride]
ED50 (dihydrochloride, 45 min): 4.9 mg/kg
Activity % (dihydrochloride): 99%

O=C1c2ccccc2S(=O)(=O)N1CCCCN1CCN(c2ncccn2)CC1 [Ipsapirone, reference compound]
ED50 [1]: 26.1 mg/kg
Activity %: 98%
